Data published in patent US20060206946A1, “Method of disrupting heme transport in nematodes and of modelling and evaluating eukaryotic heme transport” (priority 2005, published 2006).

System: R02E12.6
Test: qRT-PCR validation of heme-regulated genes (2^-ΔΔCt method)
Format: in vivo, Caenorhabditis elegans
Conditions: low heme
Description: The initial statistical analysis of the Affymetrix genome array was performed at the NIDDK microarray facility using Affymetrix MAS 5.0 Suite software. […] To further narrow-down candidate genes, we eliminated 58 genes that are involved in worm developmental processes by comparing the data from the gene chip to the microarray data of S. Kim. See Kim, S. K. et al., Science 293, 2087-2092 (2001). […] These 280 genes were then sorted based on different categories of changes in gene expression (up, down or no change) seen in 4 μM versus 500 μM samples using 20 μM dataset as the baseline (Table XX). Protein sequence motif analysis (BLOCKS, PRINTS, Pfam), transmembrane (TM-HMM) and secondary structure predictions (ExPASy) proteomics tools are performed to identify domains and motifs within the predicted ORFs […] and the housekeeping gene Ct value: ΔCt=Ctsample−Ctreference. Relative mRNA abundance represents the difference between ΔCt values for a pair of conditions, i.e., 4 μM versus […]. Relative mRNA expression is exponential and defined by the formula [Mrna]=2^−ΔΔCt. […] The standard error for ΔΔCt will be calculated by the method of Livak and Schmittgen. […]

With hemin chloride the “upregulation of R02E12.6 by qRT-PCR” value was greater than 40 fold.
